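Tested at 5 concentrations; 48 h exposure; 96-well plates; endpoints linearly interpolated, else capped at highest concentration. GI50 marks 50% less growth. TGI: total growth inhibition.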
Assays:
Assay in all cases: DTP human tumour cell line panel, 48 h
[1] = tested on: HCT-116 colon
[2] = tested on: SF-539 CNS
[3] = tested on: COLO 205 colon
[4] = tested on: RPMI-8226 leukemia
[5] = tested on: SF-295 CNS
[6] = tested on: ACHN renal
[7] = tested on: NCI-H460 lung
[8] = tested on: NCI-H23 lung
[9] = tested on: PC-3 prostate
[10] = tested on: 786-0 renal
[11] = tested on: KM12 colon
[12] = tested on: MOLT-4 leukemia
[13] = tested on: NCI/ADR-RES ovarian
[14] = tested on: MDA-MB-435
[15] = tested on: LOX IMVI melanoma
[16] = tested on: A549 NSCLC
[17] = tested on: CAKI-1 renal
[18] = tested on: HT29 colon
[19] = tested on: SN12C renal
[20] = tested on: UO-31 renal
[21] = tested on: U251 CNS
[22] = tested on: SK-MEL-2 melanoma
[23] = tested on: HOP-92 NSCLC
[24] = tested on: UACC-62 melanoma
[25] = tested on: SK-MEL-28 melanoma
[26] = tested on: T-47D breast
[27] = tested on: HOP-62 NSCLC
[28] = tested on: NCI-H522 lung
[29] = tested on: TK-10 renal
[30] = tested on: K-562 leukemia
[31] = tested on: MDA-MB-231 breast
[32] = tested on: HCC-2998 colon
[33] = tested on: A498 renal
[34] = tested on: SNB-75 CNS
[35] = tested on: CCRF-CEM leukemia
[36] = tested on: IGROV1 ovarian
[37] = tested on: SW-620 colon
[38] = tested on: HS 578T breast
[39] = tested on: HL-60(TB) leukemia
[40] = tested on: HCT-15 colon
[41] = tested on: NCI-H226 lung
[42] = tested on: MCF7 breast
[43] = tested on: SK-MEL-5 melanoma
[44] = tested on: M14 melanoma
[45] = tested on: SR leukemia
[46] = tested on: EKVX NSCLC
[47] = tested on: UACC-257 melanoma
[48] = tested on: BT-549 breast
[49] = tested on: SK-OV-3 ovarian
[50] = tested on: SNB-19 CNS
[51] = tested on: SF-268 CNS
[52] = tested on: OVCAR-4 ovarian
[53] = tested on: OVCAR-3 ovarian
[54] = tested on: DU-145 prostate
[55] = tested on: OVCAR-8 ovarian
[56] = tested on: OVCAR-5 ovarian
[57] = tested on: MALME-3M melanoma
[58] = tested on: RXF 393 renal

Q: Which results are given for COc1cc(C2NC(=O)c3ccccc3N2)ccc1OCCCCCOc1c(OC)cc(C2=NOC(c3cc(OC)c(OC)c(OC)c3)C2)cc1OC (stereo not given)?
A: GI50 [1]: 0.433 µM; TGI [1]: 32.4 µM; GI50 [2]: 19.4 µM; TGI [2]: 84.7 µM; GI50 [3]: > 59 µM; TGI [3]: > 100 µM; GI50 [4]: 0.0754 µM; TGI [4]: 1.1 µM; GI50 [5]: 2.54 µM; TGI [5]: > 100 µM; GI50 [6]: 0.556 µM; TGI [6]: > 100 µM; GI50 [7]: 14.2 µM; TGI [7]: 67.2 µM; GI50 [8]: 0.484 µM; TGI [8]: > 80 µM; GI50 [9]: 4.62 µM; TGI [9]: > 66.5 µM; GI50 [10]: 27.4 µM; TGI [10]: > 78.7 µM; GI50 [11]: 7.59 µM; TGI [11]: 98.8 µM; GI50 [12]: 0.57 µM; TGI [12]: > 100 µM; GI50 [13]: 12.7 µM; TGI [13]: > 51.8 µM; GI50 [14]: 0.499 µM; TGI [14]: > 100 µM; GI50 [15]: 16.7 µM; TGI [15]: > 100 µM; GI50 [16]: 2.25 µM; TGI [16]: 97.7 µM; GI50 [17]: > 42.4 µM; TGI [17]: > 100 µM; GI50 [18]: > 100 µM; TGI [18]: > 100 µM; GI50 [19]: 31.3 µM; TGI [19]: > 100 µM; GI50 [20]: 15.1 µM; TGI [20]: > 100 µM; GI50 [21]: 19.6 µM; TGI [21]: > 100 µM; GI50 [22]: 35.9 µM; TGI [22]: > 100 µM; GI50 [23]: 60.2 µM; TGI [23]: > 100 µM; GI50 [24]: 0.506 µM; TGI [24]: > 100 µM; GI50 [25]: 4.13 µM; TGI [25]: > 100 µM; GI50 [26]: 0.239 µM; TGI [26]: > 100 µM; GI50 [27]: 17.3 µM; TGI [27]: 61.3 µM; GI50 [28]: 17.1 µM; TGI [28]: > 56.2 µM; GI50 [29]: > 100 µM; TGI [29]: > 100 µM; GI50 [30]: 0.431 µM; TGI [30]: > 100 µM; GI50 [31]: 14.8 µM; TGI [31]: > 75.4 µM; GI50 [32]: 1.14 µM; TGI [32]: 37.8 µM; GI50 [33]: 19.5 µM; TGI [33]: > 76.8 µM; GI50 [34]: 19.6 µM; TGI [34]: > 100 µM; GI50 [35]: 0.627 µM; TGI [35]: > 77.6 µM; GI50 [36]: 0.601 µM; TGI [36]: > 71 µM; GI50 [37]: 14.7 µM; TGI [37]: > 100 µM; GI50 [38]: 15.7 µM; TGI [38]: > 82 µM; GI50 [39]: 11.7 µM; TGI [39]: > 53.9 µM; GI50 [40]: 3.34 µM; TGI [40]: > 100 µM; TGI [41]: > 100 µM; GI50 [42]: 0.356 µM; TGI [42]: > 100 µM; GI50 [43]: 0.142 µM; TGI [43]: 0.546 µM; GI50 [44]: 20.4 µM; TGI [44]: > 93 µM; GI50 [45]: 0.947 µM; TGI [45]: > 100 µM; GI50 [46]: 0.365 µM; TGI [46]: > 100 µM; GI50 [47]: 0.296 µM; TGI [47]: 69.9 µM; GI50 [48]: 0.507 µM; TGI [48]: > 100 µM; GI50 [49]: 31.1 µM; TGI [49]: > 100 µM; GI50 [50]: 16.6 µM; TGI [50]: > 88.8 µM; GI50 [51]: 20.8 µM; TGI [51]: > 100 µM; GI50 [52]: 0.417 µM; TGI [52]: > 100 µM; GI50 [53]: 12.6 µM; TGI [53]: 44 µM; GI50 [54]: 22.5 µM; TGI [54]: > 82.7 µM; GI50 [55]: 25.2 µM; TGI [55]: > 100 µM; GI50 [56]: 33.9 µM; TGI [56]: > 94.3 µM

Q: What does the source list for O=c1[nH]ncc(Br)c1Br?
A: GI50 [1]: 1.8 µM; TGI [1]: 3.42 µM; GI50 [2]: 2.42 µM; TGI [2]: 6.31 µM; GI50 [3]: 1.91 µM; TGI [3]: 3.32 µM; GI50 [4]: 1.91 µM; TGI [4]: 6.18 µM; GI50 [5]: 8.8 µM; TGI [5]: 22.5 µM; GI50 [6]: 1.79 µM; TGI [6]: 3.17 µM; GI50 [7]: 13.1 µM; TGI [7]: 27.4 µM; GI50 [8]: 1.92 µM; TGI [8]: 3.54 µM; GI50 [9]: 5.45 µM; TGI [9]: 20.8 µM; GI50 [10]: 4.08 µM; TGI [10]: 14.1 µM; GI50 [11]: 2.71 µM; TGI [11]: 13.7 µM; GI50 [12]: 2.41 µM; TGI [12]: 5.19 µM; GI50 [13]: 2.91 µM; TGI [13]: 7.69 µM; GI50 [14]: 2.2 µM; TGI [14]: 6.2 µM; GI50 [15]: 1.65 µM; TGI [15]: 3.06 µM; GI50 [57]: 1.81 µM; TGI [57]: 3.71 µM; GI50 [16]: 13.3 µM; TGI [16]: 29.1 µM; GI50 [17]: 1.44 µM; TGI [17]: 2.74 µM; GI50 [18]: 1.9 µM; TGI [18]: 3.5 µM; GI50 [19]: 2.34 µM; TGI [19]: 6.13 µM; GI50 [20]: 1.87 µM; TGI [20]: 4.51 µM; GI50 [21]: 1.66 µM; TGI [21]: 3.02 µM; GI50 [22]: 2.16 µM; TGI [22]: 5.62 µM; GI50 [23]: 1.79 µM; TGI [23]: 3.31 µM; GI50 [24]: 1.27 µM; TGI [24]: 2.58 µM; GI50 [58]: 1.38 µM; TGI [58]: 2.71 µM; GI50 [25]: 1.74 µM; TGI [25]: 3.12 µM; GI50 [26]: 2.12 µM; TGI [26]: 6.07 µM; GI50 [27]: 5.65 µM; TGI [27]: 18.1 µM; GI50 [28]: 1.71 µM; TGI [28]: 3.25 µM; GI50 [29]: 3.45 µM; TGI [29]: 10.7 µM; GI50 [31]: 1.68 µM; TGI [31]: 3.56 µM; GI50 [32]: 1.89 µM; TGI [32]: 3.38 µM; GI50 [33]: 11.8 µM; TGI [33]: 24 µM; GI50 [34]: 3.35 µM; TGI [34]: 16 µM; GI50 [35]: 2.16 µM; TGI [35]: 5.35 µM; GI50 [36]: 1.72 µM; TGI [36]: 3.68 µM; GI50 [37]: 1.7 µM; TGI [37]: 3.07 µM; GI50 [38]: 2.23 µM; TGI [38]: 9.51 µM; GI50 [39]: 2.22 µM; TGI [39]: 4.27 µM; GI50 [40]: 1.72 µM; TGI [40]: 3.3 µM; GI50 [41]: 2.19 µM; TGI [41]: 5.96 µM; GI50 [42]: 2 µM; TGI [42]: 11 µM; GI50 [43]: 4.38 µM; TGI [43]: 15.9 µM; GI50 [44]: 2.09 µM; TGI [44]: 4.23 µM; GI50 [45]: 0.911 µM; TGI [45]: 3.9 µM; GI50 [46]: 2.87 µM; TGI [46]: 13.1 µM; GI50 [47]: 2 µM; TGI [47]: 4.84 µM; GI50 [48]: 3.63 µM; TGI [48]: 12.2 µM; GI50 [49]: 13.9 µM; TGI [49]: 26.8 µM; GI50 [50]: 5.32 µM; TGI [50]: 18.9 µM; GI50 [51]: 3.02 µM; TGI [51]: 12.6 µM; GI50 [52]: 1.71 µM; TGI [52]: 3.08 µM; GI50 [53]: 1.75 µM; TGI [53]: 3.18 µM; GI50 [54]: 3.31 µM; TGI [54]: 15.3 µM; GI50 [55]: 2.86 µM; TGI [55]: 10.8 µM; GI50 [56]: 1.69 µM; TGI [56]: 3.08 µM

— PubChem BioAssay (NCI)
